pEC50, pIC50, pKi: −log10 of the molar value.
Assays:
[1] = Inhibition of Calf ALR2 in presence of NADPH by UV spectrophotometric analysis; set-up: species or system Bos taurus
Glucagon receptor [2] = target: Glucagon receptor (Homo sapiens, UniProt P47871); assay: Inhibition of human GCGR receptor
Dipeptidyl peptidase 4 = Dipeptidyl peptidase 4 (Homo sapiens, UniProt P27487); assay: Inhibition of DPP4 (unknown origin)
[3] = target: T1, Glucose-dependent insulinotropic receptor (Homo sapiens, UniProt Q8TDV5); assay: Agonist activity at human GPR119 expressed in CHO-K1 cells assessed as increase in intracellular cAMP level incubated for 5 mins by fluorescence analysis; format: cell-based
T1 sequence (Q8TDV5 whole entry): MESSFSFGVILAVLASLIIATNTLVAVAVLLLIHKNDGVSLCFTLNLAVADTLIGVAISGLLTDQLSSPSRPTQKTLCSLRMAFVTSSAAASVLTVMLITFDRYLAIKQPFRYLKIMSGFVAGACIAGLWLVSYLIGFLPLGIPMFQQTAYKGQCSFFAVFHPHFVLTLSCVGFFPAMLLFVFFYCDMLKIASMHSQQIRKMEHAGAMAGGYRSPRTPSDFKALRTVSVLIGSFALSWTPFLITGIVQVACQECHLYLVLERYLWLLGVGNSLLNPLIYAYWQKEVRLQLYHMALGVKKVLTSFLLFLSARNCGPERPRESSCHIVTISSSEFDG

[4] = target: T1, Glucose-dependent insulinotropic receptor; assay: Agonist activity at human GPR119 expressed in HEK293S cells assessed as increase in intracellular cAMP level incubated for 45 mins by HTRF analysis; format: cell-based
[5] = target: T2, Free fatty acid receptor 4 (Homo sapiens, UniProt Q5NUL3); assay: Agonist activity at FFA4 (unknown origin) expressed in CHO-K1 cells by BRET assay; format: cell-based
T2 sequence (Q5NUL3 whole entry): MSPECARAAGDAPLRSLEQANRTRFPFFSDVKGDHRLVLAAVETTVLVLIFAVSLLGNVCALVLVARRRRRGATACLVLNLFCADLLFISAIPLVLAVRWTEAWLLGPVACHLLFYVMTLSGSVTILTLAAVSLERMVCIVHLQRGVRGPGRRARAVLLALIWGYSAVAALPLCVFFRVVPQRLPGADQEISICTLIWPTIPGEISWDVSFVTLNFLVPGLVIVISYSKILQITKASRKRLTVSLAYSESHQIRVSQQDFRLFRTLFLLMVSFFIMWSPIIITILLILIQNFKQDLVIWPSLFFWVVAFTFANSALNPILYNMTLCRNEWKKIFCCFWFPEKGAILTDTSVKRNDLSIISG

Homo sapiens = organism: Homo sapiens; assay: Selectivity ratio of IC50 for inhibition of TC-PTP (unknown origin) to IC50 for inhibition of PTP1B (unknown origin)
[6] = target: T3, Tyrosine-protein phosphatase non-receptor type 1 (Homo sapiens, UniProt P18031); assay: Inhibition of PTP1B (unknown origin)
T3 sequence (P18031 whole entry): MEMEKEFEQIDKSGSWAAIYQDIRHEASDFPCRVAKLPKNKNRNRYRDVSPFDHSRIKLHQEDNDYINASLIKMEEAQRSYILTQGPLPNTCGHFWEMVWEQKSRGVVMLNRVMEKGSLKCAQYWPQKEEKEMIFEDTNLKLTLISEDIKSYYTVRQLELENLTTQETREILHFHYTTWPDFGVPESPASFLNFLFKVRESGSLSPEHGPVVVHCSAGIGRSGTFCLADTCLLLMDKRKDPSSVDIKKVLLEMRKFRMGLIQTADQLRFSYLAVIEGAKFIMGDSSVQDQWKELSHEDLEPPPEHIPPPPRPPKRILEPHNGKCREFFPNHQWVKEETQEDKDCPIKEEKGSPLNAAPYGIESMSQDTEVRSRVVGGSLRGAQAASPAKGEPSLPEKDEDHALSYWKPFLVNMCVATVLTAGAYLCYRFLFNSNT

[7] = target: T4, Tyrosine-protein phosphatase non-receptor type 2 (Homo sapiens, UniProt P17706); assay: Inhibition of TC-PTP (unknown origin)
T4 sequence (P17706 whole entry): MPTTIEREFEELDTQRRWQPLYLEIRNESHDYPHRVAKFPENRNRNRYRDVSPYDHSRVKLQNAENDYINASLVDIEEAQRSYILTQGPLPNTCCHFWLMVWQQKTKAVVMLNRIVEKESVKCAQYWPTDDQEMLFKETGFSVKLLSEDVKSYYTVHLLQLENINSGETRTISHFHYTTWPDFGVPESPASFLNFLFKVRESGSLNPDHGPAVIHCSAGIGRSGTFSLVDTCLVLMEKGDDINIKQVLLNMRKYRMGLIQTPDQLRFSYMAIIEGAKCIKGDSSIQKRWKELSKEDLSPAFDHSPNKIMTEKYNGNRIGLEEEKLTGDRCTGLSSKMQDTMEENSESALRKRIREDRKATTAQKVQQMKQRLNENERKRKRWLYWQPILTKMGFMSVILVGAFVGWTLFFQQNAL

Glucagon receptor [8] = target: Glucagon receptor (Rattus norvegicus, UniProt P30082); assay: Displacement of [125I]-glucagon from GCGR in Sprague-Dawley rat liver assessed as decrease in glucagon-stimulated CAMP production incubated for 45 mins by scintillation counter analysis; format: tissue-based
[9] = Inhibition of bovine kidney ALR1 in presence of NADPH by UV spectrophotometric analysis; format: tissue-based, Bos taurus
[10] = target: T3, Tyrosine-protein phosphatase non-receptor type 1; assay: Inhibition of PTP1B (unknown origin) using pNPP as substrate for 2 mins by spectroscopic analysis
[11] = target: T3, Tyrosine-protein phosphatase non-receptor type 1; assay: Competitive inhibition of PTP1B (unknown origin) assessed as inhibition constant using pNPP as substrate by Michaelis-Menten based analysis
[12] = target: T5, Fructose-1,6-bisphosphatase 1 (Homo sapiens, UniProt P09467); assay: Inhibition of FBPase (unknown origin)
T5 sequence (P09467 whole entry): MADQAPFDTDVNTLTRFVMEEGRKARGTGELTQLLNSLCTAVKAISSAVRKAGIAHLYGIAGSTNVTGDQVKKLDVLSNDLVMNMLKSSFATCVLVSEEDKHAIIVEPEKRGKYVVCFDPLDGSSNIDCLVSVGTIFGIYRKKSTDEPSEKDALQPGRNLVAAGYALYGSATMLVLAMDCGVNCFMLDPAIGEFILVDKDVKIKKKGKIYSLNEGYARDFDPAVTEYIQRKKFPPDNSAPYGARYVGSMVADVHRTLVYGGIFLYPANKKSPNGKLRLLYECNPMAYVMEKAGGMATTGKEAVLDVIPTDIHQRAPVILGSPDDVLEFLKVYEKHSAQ

[13] = target: Free fatty acid receptor 1 (Homo sapiens, UniProt O14842); assay: Agonist activity at human GPR40 expressed in HEK293 cells incubated for 18 to 24 hrs by HTRF assay; format: cell-based
Free fatty acid receptor 1, sequence (O14842 whole entry): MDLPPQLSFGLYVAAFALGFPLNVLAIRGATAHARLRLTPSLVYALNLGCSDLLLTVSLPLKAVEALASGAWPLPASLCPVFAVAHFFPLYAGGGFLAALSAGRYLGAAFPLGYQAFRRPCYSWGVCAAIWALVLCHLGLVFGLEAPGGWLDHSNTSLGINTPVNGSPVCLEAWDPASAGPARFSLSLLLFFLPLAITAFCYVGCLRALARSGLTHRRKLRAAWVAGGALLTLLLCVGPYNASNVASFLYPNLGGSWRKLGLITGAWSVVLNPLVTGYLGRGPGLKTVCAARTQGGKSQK

Dipeptidyl peptidase 4, sequence (P27487 whole entry): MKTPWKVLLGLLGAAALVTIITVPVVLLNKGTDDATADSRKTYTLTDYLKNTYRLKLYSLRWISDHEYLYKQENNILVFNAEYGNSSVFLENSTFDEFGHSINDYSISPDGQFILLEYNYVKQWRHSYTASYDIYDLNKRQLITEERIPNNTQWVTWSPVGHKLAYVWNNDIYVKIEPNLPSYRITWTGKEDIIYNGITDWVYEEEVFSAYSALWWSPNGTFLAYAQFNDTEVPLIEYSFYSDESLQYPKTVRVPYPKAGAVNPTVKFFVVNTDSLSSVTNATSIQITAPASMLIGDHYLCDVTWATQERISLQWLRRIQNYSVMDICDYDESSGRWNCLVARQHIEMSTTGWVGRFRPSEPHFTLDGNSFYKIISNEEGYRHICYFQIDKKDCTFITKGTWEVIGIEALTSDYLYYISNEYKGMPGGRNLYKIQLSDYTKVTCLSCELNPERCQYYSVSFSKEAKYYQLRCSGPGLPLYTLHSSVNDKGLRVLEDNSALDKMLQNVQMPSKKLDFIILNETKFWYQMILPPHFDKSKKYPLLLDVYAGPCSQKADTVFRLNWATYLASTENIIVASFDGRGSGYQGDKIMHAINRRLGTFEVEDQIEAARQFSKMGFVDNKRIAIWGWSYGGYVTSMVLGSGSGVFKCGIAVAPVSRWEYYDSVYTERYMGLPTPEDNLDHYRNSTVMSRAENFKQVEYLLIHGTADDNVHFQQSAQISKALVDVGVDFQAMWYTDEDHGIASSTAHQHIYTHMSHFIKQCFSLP
Glucagon receptor (Rattus norvegicus, UniProt P30082), sequence (P30082 whole entry): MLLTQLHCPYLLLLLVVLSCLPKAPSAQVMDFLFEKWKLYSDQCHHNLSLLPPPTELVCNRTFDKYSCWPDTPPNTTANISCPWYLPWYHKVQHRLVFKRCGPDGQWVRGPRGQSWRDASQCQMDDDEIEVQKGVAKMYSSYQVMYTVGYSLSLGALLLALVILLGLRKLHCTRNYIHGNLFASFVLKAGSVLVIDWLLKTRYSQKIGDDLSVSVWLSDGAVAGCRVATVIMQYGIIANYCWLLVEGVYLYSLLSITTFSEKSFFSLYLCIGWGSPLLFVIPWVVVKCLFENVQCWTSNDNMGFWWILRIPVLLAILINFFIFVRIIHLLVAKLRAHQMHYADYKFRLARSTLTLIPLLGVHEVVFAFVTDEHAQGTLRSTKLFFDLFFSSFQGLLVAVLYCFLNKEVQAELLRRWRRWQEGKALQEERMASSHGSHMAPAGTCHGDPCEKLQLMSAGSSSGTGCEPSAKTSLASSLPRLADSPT
Glucagon receptor (Homo sapiens, UniProt P47871), sequence (P47871 whole entry): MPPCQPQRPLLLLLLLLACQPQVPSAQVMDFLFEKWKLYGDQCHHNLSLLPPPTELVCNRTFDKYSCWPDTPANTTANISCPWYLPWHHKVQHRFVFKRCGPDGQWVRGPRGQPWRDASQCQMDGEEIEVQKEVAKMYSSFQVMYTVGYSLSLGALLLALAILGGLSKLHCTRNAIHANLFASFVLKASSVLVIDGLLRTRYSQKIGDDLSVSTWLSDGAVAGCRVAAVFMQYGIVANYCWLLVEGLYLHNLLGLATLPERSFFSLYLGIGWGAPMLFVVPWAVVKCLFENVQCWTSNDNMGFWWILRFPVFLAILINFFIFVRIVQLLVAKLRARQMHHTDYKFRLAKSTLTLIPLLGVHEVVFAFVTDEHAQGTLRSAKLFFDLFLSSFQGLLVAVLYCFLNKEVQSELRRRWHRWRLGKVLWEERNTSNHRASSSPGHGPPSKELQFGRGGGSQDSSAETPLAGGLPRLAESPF

## CC1=C(CC(=O)O)c2cc(F)ccc2/C1=C\c1ccc([S+](C)[O-])cc1 (stereo unspecified)
[1]
  pIC50: 6.53

## Cc1cc(O[C@@H](CCC(F)(F)F)c2ccc(C(=O)NCCC(=O)O)cc2)cc(C)c1-c1ccc(C(C)(C)C)cc1 [ADOMEGLIVANT]
Glucagon receptor [2]
  pKi: 8.18

## CC#CCn1c(N2CCC[C@@H](N)C2)nc2c(C)c(=O)n(Cc3nc(C)c4c(Cl)cccc4n3)c(=O)n21
Dipeptidyl peptidase 4
  pIC50: 9.15

## O=c1[nH]ncn1-c1ccc(-c2ccc(N3CCNCC3)nc2)cc1
[3]
  pEC50: 8.55

## CSc1ccc(COc2ccc(-c3ncc(C)c(N4CCN(c5ncc(OCC=C(C)C)cn5)CC4)n3)cc2)cc1
[4]
  pEC50: 7.62

## O=C(O)CCCc1ccc(OCC2=C(c3ccc(C4CC4)cc3)CCCC2)cc1
[5]
  pEC50: 7.30

## COc1cc(/C=C2\SC(=S)N(Cc3ccc(C(=O)O)cc3)C2=O)ccc1OCc1ccccc1
Homo sapiens
  Ratio IC50: 2
[6]
  pIC50: 5.96
[7]
  pIC50: 5.46

## Oc1cc(Cc2cc(O)c(Br)c(Br)c2Br)c(Br)c(Br)c1O
[6]
  pIC50: 5.62

## CCCc1c(C(C)C)cc(C(C)C)c([C@@H](C)O)c1-c1ccc(F)cc1
Glucagon receptor [8]
  pIC50: 6.96

## CCCCNCn1nc(-c2cc3ccccc3oc2=O)oc1=S
[1]
  pIC50: 6.51
[9]
  pIC50: 5.47

## Nc1cc(Cl)ccc1/C(=N/Nc1nc(-c2cc3ccccc3oc2=O)cs1)c1ccccc1
[1]
  pIC50: 6.96
[9]
  pIC50: 6.34

## C[C@H](CCC(=O)O)[C@H]1CCC2C3CC=C4C(C)(C)c5c(cnn5-c5ccc(F)cc5)C[C@]4(C)C3CC[C@@]21C (stereo partly specified)
Homo sapiens
  Ratio IC50: 11
[10]
  pIC50: 6.38
[11]
  pKi: 6.59

## Cc1ccc(-c2nnc(-c3cccc(NC(=O)CCCCO)c3)o2)cc1
[12]
  pIC50: 5.25

## CCCC(CCC)C(=O)O [VALPROIC ACID]
[9]
  pIC50: 4.24

## COc1cc(N2CCC(Oc3ccc(N4N=C(C(F)(F)F)[C@@H](C)C4CC(=O)O)cc3)[C@H](N)C2)c(Cl)cn1 (stereo partly specified)
[13]
  pEC50: 7.15
